For 30 molecules, Ki and IC50 results are on record in US10988477B2 (Merck Patent GmbH, priority 2018, dated 2021).

The structures appear in SMILES notation. pIC50, pKi: −log10 of the molar value.

Chain of GCN2 kinase (Q9P2K8 whole entry): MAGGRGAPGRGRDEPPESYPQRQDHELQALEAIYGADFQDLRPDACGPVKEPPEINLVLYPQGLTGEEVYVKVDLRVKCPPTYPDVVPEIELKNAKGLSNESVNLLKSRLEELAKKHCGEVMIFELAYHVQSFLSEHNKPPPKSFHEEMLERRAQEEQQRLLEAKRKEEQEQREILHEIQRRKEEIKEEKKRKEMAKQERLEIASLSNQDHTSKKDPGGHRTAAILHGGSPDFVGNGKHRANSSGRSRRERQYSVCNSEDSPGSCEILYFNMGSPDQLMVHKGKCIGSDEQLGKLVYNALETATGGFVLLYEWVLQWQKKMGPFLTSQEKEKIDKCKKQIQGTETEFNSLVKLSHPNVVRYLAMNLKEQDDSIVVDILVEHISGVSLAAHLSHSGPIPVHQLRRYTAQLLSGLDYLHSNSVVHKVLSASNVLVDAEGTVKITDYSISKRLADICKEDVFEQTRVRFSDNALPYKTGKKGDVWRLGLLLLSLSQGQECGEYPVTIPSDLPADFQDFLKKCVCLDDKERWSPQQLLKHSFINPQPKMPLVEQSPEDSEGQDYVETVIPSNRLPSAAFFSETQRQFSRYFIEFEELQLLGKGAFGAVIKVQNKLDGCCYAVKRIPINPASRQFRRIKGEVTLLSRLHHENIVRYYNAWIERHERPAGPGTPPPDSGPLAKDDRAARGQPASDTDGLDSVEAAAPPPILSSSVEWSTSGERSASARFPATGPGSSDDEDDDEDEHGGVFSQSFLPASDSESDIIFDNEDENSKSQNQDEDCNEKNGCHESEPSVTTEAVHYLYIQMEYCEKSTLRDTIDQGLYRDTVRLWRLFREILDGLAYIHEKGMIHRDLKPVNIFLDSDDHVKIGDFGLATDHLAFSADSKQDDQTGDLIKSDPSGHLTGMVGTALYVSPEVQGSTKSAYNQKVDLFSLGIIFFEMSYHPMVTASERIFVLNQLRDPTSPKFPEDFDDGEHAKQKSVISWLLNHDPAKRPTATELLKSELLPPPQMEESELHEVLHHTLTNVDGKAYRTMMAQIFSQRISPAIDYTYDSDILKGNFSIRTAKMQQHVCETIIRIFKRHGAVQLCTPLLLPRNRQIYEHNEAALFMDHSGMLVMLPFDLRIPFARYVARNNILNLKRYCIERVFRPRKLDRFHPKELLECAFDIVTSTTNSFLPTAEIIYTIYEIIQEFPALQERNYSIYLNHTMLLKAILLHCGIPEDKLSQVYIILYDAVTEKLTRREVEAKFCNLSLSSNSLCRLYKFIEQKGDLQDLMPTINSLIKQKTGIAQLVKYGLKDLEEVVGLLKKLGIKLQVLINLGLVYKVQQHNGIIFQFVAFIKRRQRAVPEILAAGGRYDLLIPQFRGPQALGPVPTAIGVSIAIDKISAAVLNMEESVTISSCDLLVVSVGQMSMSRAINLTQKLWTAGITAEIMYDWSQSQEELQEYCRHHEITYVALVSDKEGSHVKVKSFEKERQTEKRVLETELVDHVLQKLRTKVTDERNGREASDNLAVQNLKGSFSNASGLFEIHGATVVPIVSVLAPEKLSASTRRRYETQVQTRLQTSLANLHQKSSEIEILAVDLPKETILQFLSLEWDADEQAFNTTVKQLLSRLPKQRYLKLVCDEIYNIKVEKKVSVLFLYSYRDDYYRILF

One assay addresses GCN2 kinase (Homo sapiens, UniProt Q9P2K8). Nature of the assay: GCN2 enzyme inhibition assay (Transcreener ADP2 fluorescence polarization). It is filed as biochemical. Particulars: Enzyme activity for compounds of Formula IV; Ki(app), 280 μM ATP, 25° C. Here is the method:
Compounds were screened for their ability to inhibit GCN2 kinase activity using a Transcreener® ADP^2 fluorescence polarization assay that detects ADP levels (BellBrook Labs, WI). Assays were carried out in a buffer consisting of 25 mM Tris-HCl (pH 7.5), 50 mM NaCl, 10 mM MgCl2 and 1 mM DTT. Final substrate concentrations were 280 μM ATP and 200 μM peptidic substrate ([…]-OH [(RS)7], Bachem, Switzerland). Assays were carried out at 25° C. in the presence of a (typical) final concentration of 4 nM GCN2 kinase. An assay buffer containing GCN2 kinase and (RS)7 was prepared. 4.7 μL of this stock solution was placed per well of a black, low volume, 384-well microtitre plate (e.g. catalogue number 3676, Corning Inc., NY). To this was added […] of DMSO containing serial dilutions of the test compound (typical final concentrations of test compound were 0 to 8 μM). The plate was incubated for 10 minutes at 25° C. prior to the addition of 4.7 μL of ATP stock buffer to initiate the enzyme reaction. The reaction was allowed to proceed for 1 hour at 25° C., prior to the addition of 10 μL detection buffer (consisting of appropriate concentrations of ADP^2 antibody and ADP Alexa633 tracer in 1× stop and detect buffer as supplied by BellBrook Labs). […] Percentage inhibition of enzyme activity was then calculated at each compound dose. IC50 and Ki(app) (using known assay and kinetic parameters) values were calculated from percentage inhibition data using a non-linear, tight-binding algorithm. All data analysis was undertaken using the Screener® software package (Genedata, Switzerland).
`CC1CN(c2ccnc(-c3cnc4cnc(C(F)(F)F)cn34)n2)C(C)C(c2c[nH]c(C(F)(F)F)n2)N1` (stereo not drawn) [IV-666, 3-(4-(2,5-Dimethyl-3-(2-(trifluoromethyl)-1H-imidazol-4-yl)piperazin-1-yl)pyrimidin-2-yl)-6-(trifluoromethyl)imidazo[1,2-a]pyrazine] had a negative logarithm of the Ki (pKi) of 7.00 to 8.00.

For `FC(F)(F)c1cn2c(-c3nccc(N4CCC(C5COC5)C4)n3)cnc2cn1` (stereo not drawn) [IV-508, 3-(4-(3-(Oxetan-3-yl)pyrrolidin-1-yl)pyrimidin-2-yl)-6-(trifluoromethyl)imidazo[1,2-a]pyrazine], the negative-log Ki (pKi) is 6.00 to 7.00. On the same count and under the same terms, then `CC1CCCCN1c1ccnc(-c2cnc3cnc(C(F)(F)F)cn23)n1` (stereo not drawn) [IV-518, 3-(4-(2-Methylpiperidin-1-yl)pyrimidin-2-yl)-6-(trifluoromethyl)imidazo[1,2-a]pyrazine], with 7.00 to 8.00; and `C[C@H]1[C@H](c2cn[nH]c2)OCCN1c1ccnc(-c2cnc3cnc(C#N)cn23)n1` (racemic) [IV-281, Trans-3-(4-(3-Methyl-2-(1H-pyrazol-4-yl)morpholino)pyrimidin-2-yl)imidazo[1,2-a]pyrazine-6-carbonitrile], with 7.00 to 8.00; and `Cc1[nH]ncc1C1NC(C)CN(c2ccnc(-c3cnc4cnc(Cl)cn34)n2)C1C` (single isomer, unassigned) [IV-283, 6-Chloro-3-(4-(2,5-dimethyl-3-(5-methyl-1H-pyrazol-4-yl)piperazin-1-yl)pyrimidin-2-yl)imidazo[1,2-a]pyrazine], with 6.00 to 7.00. On to `NC(C1CCCN(c2ccnc(-c3cnc4cnc(C(F)(F)F)cn34)n2)C1)C(F)(F)F` (stereo not drawn) [IV-503, 2,2,2-Trifluoro-1-(1-(2-(6-(trifluoromethyl)imidazo[1,2-a]pyrazin-3-yl)pyrimidin-4-yl)piperidin-3-yl)ethan-1-amine], for which the negative-log Ki (pKi) is 6.00 to 7.00. The molecule `FC(F)(F)c1cn2c(-c3nccc(N4CCCC4)n3)cnc2cn1` [IV-428, 3-(4-(Pyrrolidin-1-yl)pyrimidin-2-yl)-6-(trifluoromethyl)imidazo[1,2-a]pyrazine] had a negative logarithm of the Ki (pKi) of 6.00 to 7.00.

Consider `CC1C(c2cn[nH]c2)NCCN1c1ccnc(-c2cnc3cnc(Cl)cn23)n1` (single isomer, unassigned) [IV-229, 6-Chloro-3-(4-(2-methyl-3-(1H-pyrazol-4-yl)piperazin-1-yl)pyrimidin-2-yl)imidazo[1,2-a]pyrazine], for which the pKi is 6.00 to 7.00. On the same count and under the same terms, then `N#CCCN1CCN(c2ccnc(-c3cnc4cnc(C(F)(F)F)cn34)n2)CC1` [IV-620, 3-(4-(2-(6-(Trifluoromethyl)imidazo[1,2-a]pyrazin-3-yl)pyrimidin-4-yl)piperazin-1-yl)propanenitrile], with 6.00 to 7.00; and `CS(C)(=O)=N[C@@H]1C[C@H](c2cn[nH]c2)CN(c2ccnc(-c3cnc4cnc(C(F)(F)F)cn34)n2)C1` (racemic) [IV-395], with 7.00 to 8.00. The same measure, in the same setting: the result for `CC1C(c2cn[nH]c2)OCCN1c1ccnc(-c2cnc3cnc(C(F)(F)F)cn23)n1` (single isomer, unassigned) [IV-315, 3-Methyl-2-(1H-pyrazol-4-yl)-4-(2-(6-(trifluoromethyl)imidazo[1,2-a]pyrazin-3-yl)pyrimidin-4-yl)morpholine] reads 7.00 to 8.00; that for `CC1NC(c2cn[nH]c2)C(C)N(c2ccnc(-c3cnc4cnc(C(F)(F)F)cn34)n2)C1C` (single isomer, unassigned) [IV-336, 6-(Trifluoromethyl)-3-(4-(2,3,6-trimethyl-5-(1H-pyrazol-4-yl)piperazin-1-yl)pyrimidin-2-yl)imidazo[1,2-a]pyrazine], 6.00 to 7.00; that for `C[C@H]1CN(c2cccc(-c3cnc4cnc(C(F)F)cn34)n2)C[C@@H](CNS(C)(=O)=O)C1(F)F` (single isomer, unassigned) [IV-275], 6.00 to 7.00. `CC1CN(c2ccnc(-c3cnc4cnc(C(F)(F)F)cn34)n2)CC1N1CCOCC1` (stereo not drawn) [IV-569, 4-(4-Methyl-1-(2-(6-(trifluoromethyl)imidazo[1,2-a]pyrazin-3-yl)pyrimidin-4-yl)pyrrolidin-3-yl)morpholine]: the pKi was 6.00 to 7.00. On the same count and under the same terms, the result for `CC1NC(c2cn[nH]c2)C(C)N(c2ccnc(-c3cnc4cnc(C(F)(F)F)cn34)n2)C1C` (single isomer, unassigned) [IV-337, 6-(Trifluoromethyl)-3-(4-(2,3,6-trimethyl-5-(1H-pyrazol-4-yl)piperazin-1-yl)pyrimidin-2-yl)imidazo[1,2-a]pyrazine] reads greater than 8.00; that for `CC1C(C(N)=O)CCCN1c1ccnc(-c2cnc3cnc(C(F)(F)F)cn23)n1` (single isomer, unassigned) [IV-498, 2-Methyl-1-(2-(6-(trifluoromethyl)imidazo[1,2-a]pyrazin-3-yl)pyrimidin-4-yl)piperidine-3-carboxamide], 6.00 to 7.00; that for `CC(=O)N1CCN(c2cccc(-c3cnc4cnc(C(=O)N(C)C)cn34)n2)CC1` [IV-276, 3-(6-(4-Acetylpiperazin-1-yl)pyridin-2-yl)-N,N-dimethylimidazo[1,2-a]pyrazine-6-carboxamide], 6.00 to 7.00. Same read-out and setting: the result for `CC1(C)COCCN1c1ccnc(-c2cnc3cnc(C(F)(F)F)cn23)n1` [IV-532, 3,3-Dimethyl-4-(2-(6-(trifluoromethyl)imidazo[1,2-a]pyrazin-3-yl)pyrimidin-4-yl)morpholine] reads 6.00 to 7.00; that for `Cn1cc(NC(=O)[C@@H]2CCCN(c3ccnc(-c4cnc5cnc(C(F)(F)F)cn45)n3)C2)cn1` [IV-728], less than 6.00.

Still in this assay, the particulars now being: compounds of Formula II; 280 μM ATP, 4 nM GCN2 kinase.
Take `CS(C)(=O)=NC1CC(C(F)(F)F)CN(c2cc(-c3cnc4ccc(C(F)F)nn34)ncn2)C1` (stereo not drawn) [II-694, ((1-(6-(6-(Difluoromethyl)imidazo[1,2-b]pyridazin-3-yl)pyrimidin-4-yl)-5-(trifluoromethyl)piperidin-3-yl)imino)dimethyl-λ^6-sulfanone]: the pKi was 6.00 to 8.00. Molecule `CC1CC(N=S2(=O)CCCC2)CN(c2cc(-c3cnc4ccc(C(F)F)nn34)ncn2)C1` (stereo not drawn) [II-649, 1-((1-(6-(6-(Difluoromethyl)imidazo[1,2-b]pyridazin-3-yl)pyrimidin-4-yl)-5-methylpiperidin-3-yl)imino)tetrahydro-1H-1-λ^6-thiophene 1-oxide] had a pKi of 6.00 to 8.00. The molecule `C[C@@H]1C[C@H](CO)[C@H](C)N(c2cc(-c3cnc4ccc(C(F)F)nn34)ncn2)C1` (single isomer, unassigned) [II-585] gave a negative-log Ki (pKi) greater than 8.00. Molecule `C[C@H]1[C@H](CNS(C)(=O)=O)CCCN1c1cc(-c2cnc3ccc(C(F)F)nn23)ncn1` [II-756, N-(((2S,3S)-1-(6-(6-(difluoromethyl)imidazo[1,2-b]pyridazin-3-yl)pyrimidin-4-yl)-2-methylpiperidin-3-yl)methyl)methanesulfonamide] showed a pIC50 of less than 6.00. With `CS(=O)(=O)NCC1CN(c2cc(-c3cnc4ccc(C(F)F)nn34)ncn2)CCC12CC2` (stereo not drawn) [II-566, N-((6-(6-(6-(Difluoromethyl)imidazo[1,2-b]pyridazin-3-yl)pyrimidin-4-yl)-6-azaspiro[2.5]octan-4-yl)methyl)methanesulfonamide], the pKi was greater than 8.00. Still for that read-out and setting: the result for `CC1C(NS(C)(=O)=O)CCCN1c1cc(-c2cnc3ccc(C(F)F)nn23)ncn1` (stereo not drawn) [II-603, N-(1-(6-(6-(Difluoromethyl)imidazo[1,2-b]pyridazin-3-yl)pyrimidin-4-yl)-2-methylpiperidin-3-yl)methanesulfonamide] reads 6.00 to 8.00; that for `CC1C(CNS(C)(=O)=O)N(C(C)C)CCN1c1cc(-c2cnc3ccc(C(F)F)nn23)ncn1` (stereo not drawn) [II-507, N-((4-(6-(6-(Difluoromethyl)imidazo[1,2-b]pyridazin-3-yl)pyrimidin-4-yl)-1-isopropyl-3-methylpiperazin-2-yl)methyl)methanesulfonamide], greater than 8.00. Still for that read-out and setting: then `CC(NS(C)(=O)=O)c1cccc(-c2cc(-c3cnc4ccc(C(F)F)nn34)ncn2)c1` (stereo not drawn) [II-609, N-[1-[3-[6-[6-(Difluoromethyl)imidazo[1,2-b]pyridazin-3-yl]pyrimidin-4-yl]phenyl]ethyl]methanesulfonamide], with greater than 8.00. The molecule `CC1CN(c2cc(-c3cnc4ccc(C(F)F)nn34)ncn2)CC(CO)C1(F)F` (stereo not drawn) [II-623, (1-(6-(6-(Difluoromethyl)imidazo[1,2-b]pyridazin-3-yl)pyrimidin-4-yl)-4,4-difluoro-5-methylpiperidin-3-yl)methanol] gave a pKi greater than 8.00.

Still in this assay, the particulars now being: compounds of Formula IV; 280 μM ATP, 4 nM GCN2 kinase.
The molecule `C[C@H]1C[C@H](c2cn[nH]c2)CN(c2ccnc(-c3cnc4cnc(C(F)(F)F)cn34)n2)C1` [IV-768, 3-(4-((3S,5R)-3-methyl-5-(1H-pyrazol-4-yl)piperidin-1-yl)pyrimidin-2-yl)-6-(trifluoromethyl)imidazo[1,2-a]pyrazine] gave a negative-log IC50 (pIC50) of 6.00 to 8.00. Same read-out and setting: the result for `C[C@@H]1C[C@H](N=S(C)(C)=O)CN(c2ccnc(-c3cnc4cnc(Cl)cn34)n2)C1` [IV-773, (((3S,5R)-1-(2-(6-chloroimidazo[1,2-a]pyrazin-3-yl)pyrimidin-4-yl)-5-methylpiperidin-3-yl)imino)dimethyl-16-sulfanone] reads 6.00 to 8.00.
